Reference: paper PMC12603070, “A high-throughput screening approach to discover potential colorectal cancer chemotherapeutics: repurposing drugs to identify novel disruptors of 14-3-3 proteins” (Cell Death & Disease, 2025)
Counter-ions that a name gives are not always drawn. Like-named read-outs stand apart in the source and are kept apart here.

Experiments:
NIH-3T3 cells = experiment: Hoechst/propidium iodide cell death assay in NIH-3T3; assay type: cell-based; settings: for cytotoxicity at 20 µM: Mus musculus, NIH3T3, 24 h
Description: (§1) A high-content imaging system (PerkinElmer; Operetta CLS), was used to quantify cell death and apoptosis by calculating the number of propidium iodide-positive cells relative to Hoechst-positive cells, and the number of Annexin V-positive cells relative to Hoechst-positive cells, respectively.

HT-29 cells = experiment: Hoechst/propidium iodide cell death assay in HT-29; assay type: cell-based, human; settings: for cytotoxicity at 20 µM: Homo sapiens
Description: as §1

[1] = biological target: T1, 14-3-3ζ:BAD-112-136F interactions (Homo sapiens, UniProt P63104); experiment: BRET sensor screen for disruption of 14-3-3ζ-Rluc8:BAD-112-136F-mCitrine in living NIH-3T3 cells; assay type: cell-based, murine; parameters: inhibition: dose or concentration left out as unconfirmed; BRET reduction on NIH-3T3: unit not given here; settings: for inhibition at 20 µM / inhibition: NIH3T3, 3 h
T1 construct: expressed in transfected cells; host or cells: NIH-3T3 fibroblasts, bi-directional pBI-CMV1 plasmid
T1 sequence (P63104 1-245): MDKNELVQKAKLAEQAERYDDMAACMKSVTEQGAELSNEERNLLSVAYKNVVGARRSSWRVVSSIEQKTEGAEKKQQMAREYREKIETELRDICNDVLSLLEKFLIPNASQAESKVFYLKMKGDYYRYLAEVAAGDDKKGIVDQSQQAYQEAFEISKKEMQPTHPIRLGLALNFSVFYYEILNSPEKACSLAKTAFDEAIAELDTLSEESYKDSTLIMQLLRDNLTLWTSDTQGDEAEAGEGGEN
Method: The Z’-score, which evaluates the robustness of an HTS assay readout, was calculated according to standard protocols. For the HTS, 384-well plates were coated with 100 μg/mL poly-L-ornithine (Sigma, Missouri, United States; #P3655) overnight at 37 °C, followed by rinsing with sterilized water. NIH-3T3 cells were transfected with the BRET sensor two days prior to experimentation, followed by replating onto the pre-coated 384-well plates at a density of 20,000 cells/well. After 24 h of incubation at 37 °C, growth media was replaced by Krebs buffer (pH 7.4).

[2] = 20 µM, 24 h, read-out: Percentage of cell death % 24h NIH3t3
[3] = HT-29, 24 h, 20 µM, 24 h, read-out: Percentage of cell death % 24h HT-29
[4] = HT-29, 48 h, HT-29, 48h, 20 μM, read-out: Percentage of cell death % 48h, HT-29
[5] = NIH-3T3 cells, hits from the primary screen, read-out: BRET reduction on NIH-3T3
[6] = NIH-3T3 expressing BRET sensor, 20 µM, 3 h, read-out: BRET reduction on NIH-3T3
[7] = NIH-3T3 cells, hits from the primary screen
[8] = NIH-3T3 expressing BRET sensor, 20 µM, 3 h

| Compound | Percentage of cell death % 48h, NIH3T3 (NIH-3T3 cells) | cytotoxicity at 20 µM (NIH-3T3 cells; [2]) | cytotoxicity at 20 µM (HT-29 cells; [3]) | cytotoxicity at 20 µM (HT-29 cells; [4]) | inhibition [1, 5] | inhibition at 20 µM [1, 6] | also measured |
| --- | --- | --- | --- | --- | --- | --- | --- |
| Cn1cncc1[C@@](N)(c1ccc(Cl)cc1)c1ccc2c(c1)c(-c1cccc(Cl)c1)cc(=O)n2C [Tipifarnib (Zarnestra), Tipifarnib] | 52.702% |  |  |  |  |  | cytotoxicity at 20 µM (NIH-3T3 cells; read-out: Percentage of cell death % 24h NIH3t3, 20 µM, 24 h): 65.9%; cytotoxicity at 20 µM (HT-29 cells; HT-29, 24 h, read-out: Percentage of cell death % 24h HT-29, 20 µM, 24 h): 3.09%; cytotoxicity at 20 µM (HT-29 cells; HT-29, 48 h, read-out: Percentage of cell death % 48h, HT-29, HT-29, 48h, 20 μM): 12.9%; inhibition at 20 µM ([1]; read-out: BRET reduction on NIH-3T3, NIH-3T3 cells, hits from the primary screen): 43.9%; inhibition at 20 µM ([1]; read-out: BRET reduction on NIH-3T3, NIH-3T3 expressing BRET sensor, 20 µM, 3 h): 43.9% |
| CN(C)c1ccc(C(=C2C=CC(=[N+](C)C)C=C2)c2ccc(N(C)C)cc2)cc1 [Crystal Violet] | 91.1305% | 94.3% | 94.9% | 95.4% | 75.6% | 75.6% |  |
| CC1(C)[C@@H](O)CC[C@]2(C)[C@H]3C(=O)C=C4[C@@H]5C[C@@](C)(C(=O)O)CC[C@]5(C)CC[C@@]4(C)[C@]3(C)CC[C@@H]12 [Enoxolone] | 0.6522% | 4.15% | 0.697% | 1.61% | 42.9% | 42.9% |  |
| Clc1ccc(C(Cn2ccnc2)OCc2ccsc2Cl)c(Cl)c1 (stereo not shown) [Tioconazole] | 3.795% | 7.78% | 2.22% | 5.98% |  | 27.3% | inhibition at 20 µM [1, 5]: 27.3% |
| COc1cc2ncnc(Nc3ccc(F)c(Cl)c3)c2cc1NC(=O)/C=C/CN1CCCCC1 [Dacomitinib (PF299804, PF299), Dacomitinib] | 75.5856% | 86.8% | 22.7% | 84.1% | 26.7% | 26.7% |  |
| Sodium Aescinate | 15.6079% |  |  |  |  |  | Percentage of cell death % 24h NIH3t3 (NIH-3T3 cells; 20 µM, 24 h): 50.0783%; Percentage of cell death % 24h HT-29 (HT-29 cells; 20 µM, 24 h): 0.8457%; Percentage of cell death % 48h, HT-29 (HT-29 cells; HT-29, 48h, 20 μM): 0.6065%; BRET reduction on NIH-3T3 [1, 7]: 53.9832; BRET reduction on NIH-3T3 [1, 8]: 53.9832 |
| CCOc1nc2cccc(C(=O)OC(C)OC(=O)OC3CCCCC3)c2n1Cc1ccc(-c2ccccc2-c2nnn[nH]2)cc1 (stereo not shown) [Candesartan Cilexetil] | 2.478% | 12.2% | 1.16% | 1.91% | 44.9% | 44.9% |  |
| C#C[C@]1(O)CC[C@H]2[C@@H]3CCC4=CCCC[C@@H]4[C@H]3C(=C)C[C@@]21CC [Desogestrel] | 8.012% | 16.1% | 1.59% | 2.12% | 40.6% | 40.6% |  |
| CC[C@H]1[C@@H](O)[C@@H]2[C@H](CC[C@]3(C)[C@@H]([C@H](C)CCC(=O)O)CC[C@@H]23)[C@@]2(C)CC[C@@H](O)C[C@@H]12 [Obeticholic Acid] | 0.273% | 1.16% | 0.566% | 1.41% | 36.4% | 36.4% |  |
| CCN1CCN(c2cc(-c3ccc(F)cc3)c3c(n2)CCCCCC3)CC1 [Blonanserin] | 1.273% | 1.45% | 2.57% | 15.5% | 25.1% | 25.1% |  |
| O=C1c2c(O)ccc(O)c2C(=O)c2c(NCCNCCO)ccc(NCCNCCO)c21 [Mitoxantrone HCl] | 0% | 0.018% | 0% | 0.0037% | 25.5% | 25.5% |  |
| c1ccc(-c2ccc(C(c3ccccc3)n3ccnc3)cc2)cc1 (stereo not shown) [Bifonazole] | 0.5325% | 0.428% | 1.45% | 2.62% | 32.1% | 32.1% |  |
| C=C1/C(=C\C=C2/CCC[C@]3(C)[C@@H]([C@H](C)/C=C/[C@@H](O)C4CC4)CC[C@@H]23)C[C@@H](O)C[C@@H]1O [Calcipotriol] | 2.028% | 0.552% | 0.559% | 0.922% | 31.7% | 31.7% |  |
| CCc1c(Cl)c(O)c(Cl)c(O)c1C(=O)O[C@H]1[C@H](O)[C@H](OC)[C@H](OC/C2=C\C=C\C[C@H](O)/C(C)=C/[C@H](CC)[C@@H](O[C@@H]3OC(C)(C)[C@@H](OC(=O)C(C)C)[C@H](O)[C@@H]3O)/C(C)=C/C(C)=C/C[C@@H]([C@@H](C)O)OC2=O)O[C@@H]1C [Fidaxomicin] | 1.5823% | 1.82% | 2.31% | 52.8% | 32.5% | 32.5% |  |
| CCOC(=O)C1=C(C)NC(C)=C(C(=O)OC)C1c1cccc(Cl)c1Cl (stereo not shown) [Felodipine] | 43.2531% | 6.69% | 3.81% | 6.71% | 27.6% | 27.6% |  |
| COc1cc(C)c(/C=C/C(C)=C/C=C/C(C)=C/C(=O)O)c(C)c1C [Acitretin] | 1.816% |  |  |  |  |  | cytotoxicity at 20 µM (NIH-3T3 cells; read-out: Percentage of cell death % 24h NIH3t3): 0.791%; cytotoxicity at 20 µM (HT-29 cells; HT-29, 24 h, read-out: Percentage of cell death % 24h HT-29): 0.862%; cytotoxicity at 20 µM (HT-29 cells; HT-29, 48 h, read-out: Percentage of cell death % 48h, HT-29): 1.82%; inhibition at 20 µM ([1]; read-out: BRET reduction on NIH-3T3): 31.9%; BRET reduction on NIH-3T3 [1, 7]: 31.8517 |
| Clc1ccc(C(Cn2ccnc2)OCc2ccc(Sc3ccccc3)cc2)c(Cl)c1 (stereo not shown) [Fenticonazole Nitrate] | 1.538% | 0.773% | 0.786% | 1.58% | 31.7% | 31.7% |  |
| Clc1ccc(C(Cn2ccnc2)OCc2csc3c(Cl)cccc23)c(Cl)c1 (stereo not shown) [Sertaconazole nitrate] | 10.0161% | 4.15% | 2.46% | 4.64% | 46.8% | 46.8% |  |
| Clc1ccc(CCC(Cn2ccnc2)Sc2c(Cl)cccc2Cl)cc1 (stereo not shown) [Butoconazole nitrate] | 1.36% | 1.23% | 1.75% | 3.36% | 45.1% | 45.1% |  |
| Clc1ccccc1C(c1ccccc1)(c1ccccc1)n1ccnc1 [Clotrimazole] | 1.657% | 0.937% | 0.234% | 0.787% | 30.1% | 30.1% |  |
| CC/C(=C(\c1ccccc1)c1ccc(OCCN(C)C)cc1)c1ccccc1 [Tamoxifen] | 78.8324% |  |  |  |  |  | Percentage of cell death % 24h NIH3t3 (NIH-3T3 cells; 20 µM, 24 h): 81.9489%; Percentage of cell death % 24h HT-29 (HT-29 cells; 20 µM, 24 h): 3.365%; Percentage of cell death % 48h, HT-29 (HT-29 cells; HT-29, 48h, 20 μM): 61.8661%; %Cell death HT-29 (HT-29 cells; HT-29, time not given): 63.3%; BRET reduction on NIH-3T3 [1, 7]: 54.2923; BRET reduction on NIH-3T3 [1, 8]: 54.2923 |
| NC(=O)N1CCC(CC(=O)N2CCC([C@H]3c4ncc(Br)cc4CCc4cc(Cl)cc(Br)c43)CC2)CC1 [Lonafarnib] | 40.7575% | 36.3% | 1.12% | 1.7% | 40.6% | 40.6% |  |
